Source: ChEMBL document CHEMBL5321276, “Novel Benzimidazoles as Potent Small-Molecule Inhibitors and Degraders of V-Domain Ig Suppressor of T-Cell Activation (VISTA)” (J Med Chem, 2023)
pKd: −log10 of the molar value. Calls of active or inactive are those of the source. The rule behind the calls is not given here.

Assays:
[1] = target: T1, V-type immunoglobulin domain-containing suppressor of T-cell activation (Homo sapiens, UniProt Q9H7M9); assay: Binding affinity to human VISTA assessed as dissociation constant by SPR assay
T1 sequence (Q9H7M9 whole entry): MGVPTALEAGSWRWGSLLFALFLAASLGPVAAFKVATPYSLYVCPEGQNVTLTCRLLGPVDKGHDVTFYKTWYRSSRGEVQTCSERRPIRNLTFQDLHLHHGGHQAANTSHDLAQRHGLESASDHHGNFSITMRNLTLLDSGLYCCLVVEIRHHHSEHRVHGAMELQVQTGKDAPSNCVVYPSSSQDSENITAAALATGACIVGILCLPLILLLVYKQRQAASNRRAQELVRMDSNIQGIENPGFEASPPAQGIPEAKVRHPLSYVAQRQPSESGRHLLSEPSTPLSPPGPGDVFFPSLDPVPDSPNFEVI

[2] = test system: CT26; assay: Antitumor activity against mouse CT26 cells implanted in BALB/c mouse assessed as reduction in tumor growth at 60 mg/kg, po administered once daily for 15 days; format: functional, organism-based; settings: time 15.0 day
[3] = test system: HepG2; assay: Induction of autophagy in human HepG2 cells assessed as induction of VISTA degradation at 5 uM by Western blotting analysis; format: functional, cell-based
[4] = test system: HepG2; assay: Induction of autophagy in human HepG2 cells assessed as induction of VISTA degradation measured after 24 hrs by Western blotting analysis; format: functional, cell-based; settings: dose 5-10 µM
[5] = test system: HepG2; assay: Induction of autophagy in human HepG2 cells assessed as induction of VISTA degradation at 10 uM measured after 24 hrs in presence of pepstatin A by Western blotting analysis; format: functional, cell-based
[6] = test system: MDA-MB-231; assay: Antitumor immunity against human MDA-MB-231 cells cocultured with CD3/CD28/CD2 T cell activator stimulated human PBMC cells assessed as reduction in cell growth by measuring LDH release pre-treated with compound for 2 hrs measured after 12 hrs; format: functional, cell-based; settings: dose 0.313-5 µM, time 14.0 hrs
[7] = test system: CT26; assay: Antitumor activity against mouse CT26 cells implanted in BALB/c mouse assessed as tumor shrinkage at 30 to 120 mg/kg, po administered once daily for 15 days by Hematoxylin and eosin based analysis; format: functional, organism-based; settings: dose 30-120 mg/kg, time 15.0 day
[8] = Toxicity in BALB/c mouse implanted with mouse CT26 cells assessed as mortality at 30 to 120 mg/kg, po administered once daily for 15 days; format: organism-based; settings: in vivo, 360 h, dose 30-120 mg/kg, time 15 day
[9] = Toxicity in BALB/c mouse implanted with mouse CT26 cells assessed as reduction in body weight at 30 to 120 mg/kg, po administered once daily for 15 days; format: organism-based; settings: in vivo, 360 h, dose 30-120 mg/kg, time 15 day
[10] = target: T2, V-type immunoglobulin domain-containing suppressor of T-cell activation (Mus musculus, UniProt Q9D659); assay: Binding affinity to mouse VISTA assessed as dissociation constant incubated for 10 mins by MST assay
T2 sequence (Q9D659 whole entry): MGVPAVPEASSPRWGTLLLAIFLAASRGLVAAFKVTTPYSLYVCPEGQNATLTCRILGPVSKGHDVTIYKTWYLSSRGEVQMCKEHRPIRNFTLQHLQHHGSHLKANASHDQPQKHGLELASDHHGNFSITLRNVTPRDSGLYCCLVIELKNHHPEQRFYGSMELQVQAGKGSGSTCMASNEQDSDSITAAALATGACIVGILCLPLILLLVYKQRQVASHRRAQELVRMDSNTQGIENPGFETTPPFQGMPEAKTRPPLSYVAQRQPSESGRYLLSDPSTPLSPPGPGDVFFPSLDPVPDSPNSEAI

[11] = test system: CT26; assay: Antitumor activity against po dosed mouse CT26 cells implanted in BALB/c mouse assessed as reduction in tumor growth administered once daily for 15 days; format: functional, organism-based; settings: dose 30-120 mg/kg, time 15.0 day
[12] = test system: CT26; assay: Antitumor activity against mouse CT26 cells implanted in BALB/c mouse assessed as tumor growth inhibition at 120 mg/kg, po administered once daily for 15 days; format: functional; settings: CT26, 360 h, time 15 day, read-out: TGI
[13] = test system: CT26; assay: Antitumor activity against mouse CT26 cells implanted in BALB/c mouse assessed as tumor growth inhibition at 30 mg/kg, po administered once daily for 15 days; format: functional; settings: CT26, 360 h, time 15 day, read-out: TGI
[14] = test system: HepG2; assay: Induction of autophagy in human HepG2 cells assessed as increase in LC3II expression at 10 uM measured after 24 hrs in presence of chloroquine by Western blotting analysis; format: functional, cell-based
[15] = target: T3, V-type immunoglobulin domain-containing suppressor of T-cell activation (Homo sapiens) (UniProt Q9H7M9); assay: Inhibition of Fc fused VISTA in CD3/CD28/CD2 T cell activator stimulated human PBMC cells assessed as induction of IFN-gamma secretion at 5 to 10 uM measured after 48 hrs by ELISA assay; format: cell-based; settings: dose 5-10 µM
T3 sequence (whole entry): T1 sequence (Q9H7M9 whole entry)

[16] = test system: HepG2; assay: Induction of autophagy in human HepG2 cells assessed as induction of VISTA degradation at 10 uM measured upto 4 hrs in presence of cycloheximide by Western blotting analysis; format: functional, cell-based
[17] = test system: CT26; assay: Antitumor activity against mouse CT26 cells implanted in BALB/c mouse assessed as induction of VISTA degradation in tumor at 30 to 120 mg/kg, po administered once daily for 15 days by Western blotting analysis; format: functional, organism-based; settings: dose 30-120 mg/kg, time 15.0 day
[18] = test system: HepG2; assay: Induction of autophagy in human HepG2 cells harboring adenovirus-mCherry-GFP-LC3B assessed as increase in LC3 puncta accumulation measured after 24 hrs by inverted fluorescence microscopic analysis; format: functional, cell-based; settings: dose 5-10 µM
[19] = test system: HepG2; assay: Induction of autophagy in human HepG2 cells assessed as induction of VISTA degradation at 10 uM measured after 24 hrs in presence of MG132 by Western blotting analysis; format: functional, cell-based
[20] = test system: HepG2; assay: Induction of autophagy in human HepG2 cells assessed as induction of VISTA degradation at 10 uM measured after 24 hrs in presence of 3-MA by Western blotting analysis; format: functional, cell-based
[21] = test system: CT26; assay: Antitumor activity against mouse CT26 cells implanted in BALB/c mouse assessed as tumor growth delay at 30 to 120 mg/kg, po administered once daily for 15 days by Hematoxylin and eosin based analysis; format: functional, organism-based; settings: dose 30-120 mg/kg, time 15.0 day
[22] = Oral bioavailability in Sprague-Dawley rat at 25 mg/kg measured upto 24 hrs by LC-MS/MS analysis; format: ADME, organism-based; settings: in vivo
[23] = test system: HepG2; assay: Induction of autophagy in human HepG2 cells assessed as induction of VISTA degradation at 10 uM measured after 24 hrs in presence of chloroquine by Western blotting analysis; format: functional, cell-based
[24] = test system: MDA-MB-231; assay: Cytotoxicity against human MDA-MB-231 cells assessed as reduction in cell viability at 5 uM; format: toxicity, cell-based; settings: mda-mb-231, 5 µM
[25] = test system: PBMC; assay: Cytotoxicity against human PBMC cells assessed as reduction in cell viability at 5 uM; format: toxicity, cell-based
[26] = test system: CT26; assay: Antitumor activity against po dosed mouse CT26 cells implanted in BALB/c mouse assessed as increase in infiltration of CD8 positive cells in tumor administered once daily for 15 days by DAPI staining based fluorescent inverted microscopic analysis; format: functional, organism-based; settings: dose 30-120 mg/kg, time 15.0 day
[27] = test system: CT26; assay: Antitumor activity against mouse CT26 cells implanted in BALB/c mouse assessed as tumor growth inhibition at 60 mg/kg, po administered once daily for 15 days; format: functional; settings: CT26, 360 h, time 15 day, read-out: TGI

Cc1c(-c2ccccc2)ccc2nc(-c3cccc(CNCC(=O)O)c3)[nH]c12
pKd [1]: 5.98

Cc1c(-c2ccccc2)ccc2nc(-c3cccc(CNC[C@H](O)CC(=O)O)c3)[nH]c12
pKd [1]: 5.75

CC(=O)NCCNCc1cccc(-c2nc3ccc(Br)c(C)c3[nH]2)c1
pKd [1]: 5.94

Cc1c(-c2ccccc2)ccc2nc(-c3ccc(CNCCO)cc3)[nH]c12
pKd [1]: 5.95

Cc1c(-c2ccccc2)ccc2nc(-c3cccc(CNCCN)c3)[nH]c12
pKd [1]: 6.31

C[C@@H](O)[C@H](NC(=O)N[C@@H](CC(N)=O)c1nc([C@@H](N)CO)no1)C(=O)O
Activity [2]: Active
Activity [3]: inactive

CC(=O)NCCNCc1cccc(-c2nc3cccc(C)c3[nH]2)c1
pKd [1]: 5.51

Cc1c(-c2ccccc2)ccc2nc(-c3cccc(CNCCO)c3)[nH]c12
Activity [4]: Dose-Dependent Effect
Activity [5]: inactive
Activity [6]: Dose-Dependent Effect
Activity [7]: Active
Activity [8]: Non-Toxic
Activity [9]: Non-Toxic
pKd [10]: 5.17
Activity [11]: Dose-Dependent Effect
inhibition in vivo at 120 mg/kg [12]: 59%
inhibition in vivo at 30 mg/kg [13]: 29%
Activity [14]: Active
inhibition [15]: Active
Activity [16]: Active
Activity [17]: Active
Activity [18]: Dose-Dependent Effect
Activity [19]: Active
Activity [20]: inactive
Activity [21]: Active
bioavailability [22]: 16%
Activity [23]: inactive
Activity [24]: Non-Toxic
Activity [25]: Non-Toxic
Activity [3]: Active
Activity [26]: Dose-Dependent Effect
inhibition in vivo at 60 mg/kg [27]: 41%

CC(=O)NCCNCc1cccc(-c2nc3ccc(-c4ccccc4)c(C)c3[nH]2)c1
pKd [1]: 6.73
inhibition [15]: Active

CC(=O)NCCNCc1ccc(-c2nc3ccc(-c4ccccc4)c(C)c3[nH]2)cc1
pKd [1]: 6.43
inhibition [15]: Active

Cc1c(-c2ccccc2)ccc2nc(-c3cccc(CNCC[C@@H]4CCC(=O)N4)c3)[nH]c12
pKd [1]: 6.12
